# From patent publication US6365746B1, “Stable and water soluble bis Au(I) complexes and their synthesis” (Eastman Kodak Company, priority 1997, dated 2002)
# Tests used:
# Type in all cases: physicochemical
# [1] = Stability study of aqueous solution monitored by UV-visible spectroscopy
# Method: Stability Study of Compound S. To a 1000 mL borosilicate volumetric flask was added 14.7 g of Compound S and water. An aliquot of the gold solution was placed into a quartz cuvette and the keeping characteristics of the solution were monitored using UV-visible spectroscopy over the course of 25 days. A compound, TTT, a known sensitizer having a mesoionic heterocycle was similarly monitored.
# [2] = Stability in 0.025 N H2SO4 at room temperature (gold precipitation); settings: 200 mg in 600 mL 0.025 N H2SO4, room temperature, after two weeks (duration of the study)
# Method: Stability of Compound S versus Compound TTT. Two different batches of Compound TTT and Compound S, each weighing 200 mg, were dissolved in 600 mL of a 0.025 N H2SO4. The solutions were allowed to stand at room temperature. One of the solutions containing Compound TTT had brownish colloidal gold precipitated within 5 days and the other batch had purplish gold specks after 7 days.
# [3] = Solubility study in water (gravimetric, filtrate residue); settings: stirred in the dark 1 hr, filtered, duplicate
# Method: Solubility Study of compound S.5 H2O. To a 10 mL borosilicate volumetric flask was added 0.25 g of Compound S and a stir bar. Water was added to the 10 mL mark and the suspension was stirred in the dark for 1 hr. The suspension was filtered through a 0.25 μm syringe filter and 3.00 mL of the filtrate was placed into a tared porcelain dish (dried by heating at 125° C. for 12 hours followed by cooling to ambient temperature in a CaCl2 desiccator). The sample was placed into a vacuum desiccator and subjected to vacuum for ca. 60 hours. Finally, the dish and residue were weighed and the mass of the residue was determined by difference.
Substance,Change in Absorbance @ 235 nm ([1]; day 1),Change in Absorbance @ 235 nm ([1]; day 4),Change in Absorbance @ 235 nm ([1]; day 8),Change in Absorbance @ 235 nm ([1]; day 13),Change in Absorbance @ 235 nm ([1]; day 20),Change in Absorbance @ 235 nm ([1]; day 25),gold precipitate from the solution [2],average solubility [3]
"bis(1,4,5-trimethyl-1,2,4-triazolium-3-thiolate) gold (I) tetrafluoroborate [TTT, reference compound]",0,0.0222,0.0653,0.0868,0.1108,0.1340,–,–
potassium bis(1-[3-(2-sulfonatobenzamido)phenyl]-5-mercaptotetrazole potassium salt) aurate(I) pentahydrate [Compound S],0,0.0013,0.0015,0.0058,0.0070,0.0064,no gold precipitate,33.6 mg/mL
